Laboratory results: US20130079373A1, “Substituted Methanesulfonamide Derivatives as Vanilloid Receptor Ligands” (priority 2011, published 2013)

What follows are molecules tested against T1, vanilloid receptor 1 (VR1/TRPV1 receptor) (Homo sapiens, UniProt Q8NER1) (assay: Functional testing on the vanilloid receptor 1 (FLIPR Ca2+ influx assay, capsaicin stimulation)). Settings: @1 μM compound; Cap = capsaicin; human being; read-out: inhibition (as a percentage), (f) (human being) Cap.
T1 construct: expressed in transfected cells; host or cells: CHO K1
Assay type: cell-based
Experimental: Furthermore, preference may be given to compounds according to the invention that cause a 50 percent displacement of capsaicin, which is present at a concentration of 100 nM, in a FLIPR assay with CHO K1 cells which were transfected with the human VR1 gene at a concentration of less than 2,000 nM, preferably less than 1,000 nM, particularly preferably less than 300 nM, most particularly preferably less than 100 nM, even more preferably less than 75 nM, additionally preferably less than 50 nM, most preferably less than 10 nM.
In the process, the Ca^2+ influx is quantified in the FLIPR assay with the aid of a Ca^2+-sensitive dye (type Fluo-4, Molecular Probes Europe BV, Leiden, the Netherlands) in a fluorescent imaging plate reader (FLIPR, Molecular Devices, Sunnyvale, USA), as described hereinafter.
I. Functional Testing Carried Out on the Vanilloid Receptor 1 (VR1/TRPV1 Receptor) […]
The number of cells in the suspension is set to 3×10^5 per mL and 150 μL of this suspension are in each case introduced into a recess in the cell culture plates coated as described hereinbefore. In the incubator the plates are left for two to three days at 37° C., 5% by volume of CO2 and 95% relative humidity. Subsequently, the cells are loaded with 2 μM of Fluo-4 and 0.01% by volume of Pluronic F127 (Molecular Probes Europe BV, Leiden, the Netherlands) in HBSS buffer (Hank's buffered saline solution, Gibco Invitrogen GmbH, Karlsruhe, Germany) for 30 min at 37° C., washed 3 times with HBSS buffer and after further incubation for 15 minutes at room temperature used for Ca^2+ measurement in a FLIPR assay. The Ca^2+ dependent fluorescence is in this case measured before and after the addition of substances (λex=488 nm, λem=540 nm). Quantification is carried out by measuring the highest fluorescence intensity (FC, fluorescence counts) over time.
The FLIPR protocol consists of 2 substance additions. First the compounds to be tested (10 μM) are pipetted onto the cells and the Ca^2+ influx is compared with the control (capsaicin 10 μM). This provides the result in % activation based on the Ca^2+ signal after the addition of 10 μM of capsaicin (CP). After 5 minutes' incubation, 100 nM of capsaicin are applied and the Ca^2+ influx is also determined.
Desensitising agonists and antagonists lead to suppression of the Ca^2+ influx. The % inhibition is calculated compared to the maximum achievable inhibition with 10 μM of capsazepine.
Triple analyses (n=3) are carried out and repeated in at least 3 independent experiments (N=4).
Starting from the percentage displacement caused by different concentrations of the compounds to be tested of general formula I, IC50 inhibitory concentrations which cause a 50-percent displacement of capsaicin were calculated. Ki values for the test substances were obtained by conversion by means of the Cheng-Prusoff equation (Cheng, Prusoff; Biochem. Pharmacol. 22, 3099-3108, 1973).
The affinity of the compounds according to the invention for the vanilloid receptor 1 (VR1/TRPV1 receptor) was determined as described hereinbefore (pharmacological method I).

T1 sequence (Q8NER1 whole entry): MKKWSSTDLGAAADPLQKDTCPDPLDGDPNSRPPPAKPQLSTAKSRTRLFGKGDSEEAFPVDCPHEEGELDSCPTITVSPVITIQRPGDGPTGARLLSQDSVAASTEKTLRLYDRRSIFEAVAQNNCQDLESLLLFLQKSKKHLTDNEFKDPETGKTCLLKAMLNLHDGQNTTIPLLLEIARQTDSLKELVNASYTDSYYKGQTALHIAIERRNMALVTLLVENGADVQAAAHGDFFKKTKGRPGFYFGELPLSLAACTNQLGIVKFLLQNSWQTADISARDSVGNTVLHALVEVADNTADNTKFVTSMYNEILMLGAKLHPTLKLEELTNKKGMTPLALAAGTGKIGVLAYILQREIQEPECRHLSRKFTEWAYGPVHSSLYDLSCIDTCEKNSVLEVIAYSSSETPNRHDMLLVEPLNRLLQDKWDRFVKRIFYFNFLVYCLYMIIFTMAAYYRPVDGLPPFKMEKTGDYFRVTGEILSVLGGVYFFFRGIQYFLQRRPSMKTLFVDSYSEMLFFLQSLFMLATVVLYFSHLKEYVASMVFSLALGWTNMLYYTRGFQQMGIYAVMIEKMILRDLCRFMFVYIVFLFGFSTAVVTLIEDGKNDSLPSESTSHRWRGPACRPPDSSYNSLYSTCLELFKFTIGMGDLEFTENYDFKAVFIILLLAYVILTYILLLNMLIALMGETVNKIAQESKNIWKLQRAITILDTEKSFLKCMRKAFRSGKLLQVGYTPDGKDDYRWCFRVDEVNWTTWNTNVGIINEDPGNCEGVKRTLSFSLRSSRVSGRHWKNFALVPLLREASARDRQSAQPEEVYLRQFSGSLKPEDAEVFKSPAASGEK

| SMILES | inhibition at 1 µM |
| --- | --- |
| COc1cc(C(C)C(=O)NCc2ccc(C(F)(F)F)nc2OC(C)C)ccc1CNS(C)(=O)=O (stereo not drawn) [Example 27, N-((2-isopropoxy-6-(trifluoromethyl)pyridin-3-yl)methyl)-2-(3-methoxy-4-(methylsulfonamidomethyl)phenyl)propanamide] | 15% |

Same assay, conditions: @5 μM compound; Cap = capsaicin; human being; read-out: inhibition (as a percentage), (f) (human being) Cap

| SMILES | inhibition at 5 µM |
| --- | --- |
| COCCCc1nc(C(F)(F)F)ccc1CNC(=O)C(C)c1ccc(CNS(C)(=O)=O)c(F)c1 (stereo not drawn) [Example 2, 2-(3-fluoro-4-(methylsulfonamidomethyl)phenyl)-N-((2-(3-methoxypropyl)-6-(trifluoromethyl)pyridin-3-yl)methyl)propanamide] | 18% |
| COCCOCc1nc(C(F)(F)F)ccc1CNC(=O)C(C)c1ccc(CNS(C)(=O)=O)c(F)c1 (stereo not drawn) [Example 3, 2-(3-fluoro-4-(methylsulfonamidomethyl)phenyl)-N-((2-((2-methoxyethoxy)methyl)-6-(trifluoromethyl)pyridin-3-yl)methyl)propanamide] | 13% |

Same assay, conditions: Cap = capsaicin; human being; Ki from IC50 by the Cheng-Prusoff equation; read-out: (f) Ki (human being) [nM] Cap

| SMILES | Ki |
| --- | --- |
| CCCCOc1nc(C(F)(F)F)ccc1CNC(=O)C(C)c1ccc(CNS(C)(=O)=O)c(F)c1 (stereo not drawn) [Example 16, N-((2-butoxy-6-(trifluoromethyl)pyridin-3-yl)methyl)-2-(3-fluoro-4-(methylsulfonamidomethyl)phenyl)propanamide] | 8 nM |
| CC(C(=O)NCc1ccc(C(F)(F)F)nc1C1CCCCC1)c1ccc(CNS(C)(=O)=O)c(F)c1 (stereo not drawn) [Example 6, N-((2-cyclohexyl-6-(trifluoromethyl)pyridin-3-yl)methyl)-2-(3-fluoro-4-(methylsulfonamidomethyl)phenyl)propanamide] | 15 nM |
| CC(C)Oc1nc(C(F)(F)F)ccc1CNC(=O)Nc1ccc(CNS(N)(=O)=O)c(F)c1 [Example 36, 1-{3-fluoro-4-[(sulfamoylamino)methyl]phenyl}-3-{[2-isopropoxy-6-(trifluoromethyl)pyridin-3-yl]methyl}urea] | 6 nM |
| CCCCOc1nc(C(F)(F)F)ccc1CNC(=O)Nc1ccc(CNS(N)(=O)=O)cc1 [Example 33, 1-{[2-butoxy-6-(trifluoromethyl)pyridin-3-yl]methyl}-3-{4-[(sulfamoylamino)methyl]phenyl}urea] | 8 nM |
| CC(C(=O)NCc1ccc(C(F)(F)F)nc1/C=C/C(C)(C)C)c1ccc(CNS(C)(=O)=O)c(F)c1 (stereo not drawn) [Example 4, (E)-N-((2-(3,3-dimethylbut-1-enyl)-6-(trifluoromethyl)pyridin-3-yl)methyl)-2-(3-fluoro-4-(methylsulfonamidomethyl)phenyl)propanamide] | 12 nM |
| NS(=O)(=O)NCc1ccc(NC(=O)NCc2ccc(C(F)(F)F)nc2OC2CCCC2)cc1 [Example 34, 1-{[2-cyclopentyloxy-6-(trifluoromethyl)pyridin-3-yl]methyl}-3-{4-[(sulfamoylamino)methyl]phenyl}urea] | 1 nM |
| CC(C(=O)NCc1ccc(C(F)(F)F)nc1OC1CCOCC1)c1ccc(CNS(C)(=O)=O)c(F)c1 (stereo not drawn) [Example 25, 2-(3-fluoro-4-(methylsulfonamidomethyl)phenyl)-N-((2-(tetrahydro-2H-pyran-4-yloxy)-6-(trifluoromethyl)pyridin-3-yl)methyl)propanamide] | 111 nM |
| CC(C(=O)NCc1ccc(C(F)(F)F)nc1-c1cccs1)c1ccc(CNS(C)(=O)=O)c(F)c1 (stereo not drawn) [Example 47, 2-(3-fluoro-4-(methylsulfonamidomethyl)phenyl)-N-((2-(thiophen-2-yl)-6-(trifluoromethyl)pyridin-3-yl)methyl)propanamide] | 41 nM |
| CC(C(=O)NCc1ccc(C(F)(F)F)nc1SC1CCCCC1)c1ccc(CNS(C)(=O)=O)c(F)c1 (stereo not drawn) [Example 43, N-((2-(cyclohexylthio)-6-(trifluoromethyl)pyridin-3-yl)methyl)-2-(3-fluoro-4-(methylsulfonamidomethyl)phenyl)propanamide] | 44 nM |
| CCS(=O)(=O)NCc1ccc(C(C)C(=O)NCc2ccc(C(F)(F)F)nc2OC(C)C)cc1F (stereo not drawn) [Example 30, 2-(4-(ethylsulfonamidomethyl)-3-fluorophenyl)-N-((2-isopropoxy-6-(trifluoromethyl)pyridin-3-yl)methyl)propanamide] | 70 nM |
| CC(C(=O)NCc1ccc(C(F)(F)F)nc1C1CCCC1)c1ccc(CNS(C)(=O)=O)c(F)c1 (stereo not drawn) [Example 5, N-((2-cyclopentyl-6-(trifluoromethyl)pyridin-3-yl)methyl)-2-(3-fluoro-4-(methylsulfonamidomethyl)phenyl)propanamide] | 13 nM |
| CC(C)Oc1nc(C(F)(F)F)ccc1CNC(=O)Nc1ccc(CNS(N)(=O)=O)cc1 [Example 32, 1-{[2-isopropoxy-6-(trifluoromethyl)pyridin-3-yl]methyl}-3-{4-[(sulfamoylamino)methyl]phenyl}urea] | 10 nM |
| CCCCOc1nc(C(F)(F)F)ccc1CNC(=O)Nc1ccc(CNS(N)(=O)=O)c(F)c1 [Example 37, 1-{3-fluoro-4-[(sulfamoylamino)methyl]phenyl}-3-{[2-butoxy-6-(trifluoromethyl)pyridin-3-yl]methyl}urea] | 7 nM |
| CCCCOc1nc(C(F)(F)F)ccc1CNC(=O)C(C)c1ccc(CNS(C)(=O)=O)c(OC)c1 (stereo not drawn) [Example 29, N-((2-butoxy-6-(trifluoromethyl)pyridin-3-yl)methyl)-2-(3-methoxy-4-(methylsulfonamidomethyl)phenyl)propanamide] | 61 nM |
| CC(C)Oc1nc(C(F)(F)F)ccc1CNC(=O)C(C)c1ccc(CNS(C)(=O)=O)c(F)c1 (stereo not drawn) [Example 15, 2-(3-fluoro-4-(methylsulfonamidomethyl)phenyl)-N-((2-isopropoxy-6-(trifluoromethyl)pyridin-3-yl)methyl)propanamide] | 37 nM |
| CCCCCc1nc(C(F)(F)F)ccc1CNC(=O)C(C)c1ccc(CNS(C)(=O)=O)c(F)c1 (stereo not drawn) [Example 1, 2-(3-fluoro-4-(methylsulfonamidomethyl)phenyl)-N-((2-pentyl-6-(trifluoromethyl)pyridin-3-yl)methyl)propanamide] | 14 nM |
| CC(C(=O)NCc1ccc(C(F)(F)F)nc1-c1ccoc1)c1ccc(CNS(C)(=O)=O)c(F)c1 (stereo not drawn) [Example 46, 2-(3-fluoro-4-(methylsulfonamidomethyl)phenyl)-N-((2-(furan-3-yl)-6-(trifluoromethyl)pyridin-3-yl)methyl)propanamide] | 46 nM |
| CCOc1nc(C(F)(F)F)ccc1CNC(=O)Nc1ccc(CNS(N)(=O)=O)c(F)c1 [Example 35, 1-{3-fluoro-4-[(sulfamoylamino)methyl]phenyl}-3-{[2-ethoxy-6-(trifluoromethyl)pyridin-3-yl]methyl}urea] | 16 nM |
| CCCCOc1nc(C(F)(F)F)ccc1CNC(=O)C(C)c1ccc(CNS(=O)(=O)CC)c(F)c1 (stereo not drawn) [Example 31, N-((2-butoxy-6-(trifluoromethyl)pyridin-3-yl)methyl)-2-(4-(ethylsulfonamidomethyl)-3-fluorophenyl)propanamide] | 15 nM |
| CC(C(=O)NCc1ccc(C(F)(F)F)nc1OC1CCCC1)c1ccc(CNS(C)(=O)=O)c(F)c1 (stereo not drawn) [Example 20, N-((2-(cyclopentyloxy)-6-(trifluoromethyl)pyridin-3-yl)methyl)-2-(3-fluoro-4-(methylsulfonamidomethyl)phenyl)propanamide] | 13 nM |
| CC(C(=O)NCc1ccc(C(F)(F)F)nc1-c1ccc2cc[nH]c2c1)c1ccc(CNS(C)(=O)=O)c(F)c1 (stereo not drawn) [Example 44, N-((2-(1H-indol-6-yl)-6-(trifluoromethyl)pyridin-3-yl)methyl)-2-(3-fluoro-4-(methylsulfonamidomethyl)phenyl)propanamide] | 83 nM |
